In assay [1] the target is T1, PD-L1 (Homo sapiens, UniProt Q9NZQ7).
T1 construct: determine if they can specifically dimerize the extracellular domains of PD-L1
The assay is described as follows: PD-L1/PD-L1 dimerization biochemical protein-protein interaction assay (ALPHA). The following applies: compound-induced PD-L1 dimerization, head prints '1 nM' (0.5 nM His-tagged PD-L1 and 0.5 nM FLAG-tagged PD-L1), read-out: AC50 PDL1 Dimer Alpha 1 nM. Type of assay: binding. A digest of the protocol:
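ALPHA proximity assay of compound-induced dimerization of 0.5 nM His-tagged and 0.5 nM FLAG-tagged PD-L1 extracellular domains in Hepes pH 7.4 buffer, 2 h at 25 °C. Anti-His acceptor then anti-FLAG donor beads, 60 min each; AC50 from four-parameter fit.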

The target of assay [2] is PD-1/PD-L1 (Homo sapiens, UniProt Q9NZQ7). The assay is described as follows: PD-1/PD-L1 biochemical protein-protein interaction assay (ALPHA). Type of assay: binding. The following applies: 0.3 nM His tagged PD-L1, 2.5 nM biotinylated Fc-PD-1, 60 minutes at 25° C., read-out: IC50 PD-L1-PD-1 Alpha IC50-mono PD-L1-fcP-D1. A digest of the protocol:
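Final concentrations 0.3 nM His-tagged PD-L1 and 2.5 nM biotinylated Fc-PD-1 (extracellular domains) were reacted with compound for 60 min at 25° C in pH 7.4 Hepes/NaCl/EDTA/Tween/BSA buffer. Binding was then detected by ALPHA beads, and IC50 values were taken from four-parameter curve fitting.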

In assay [3] the target is T2, PD-1/PD-L1 interaction (Homo sapiens, UniProt Q9NZQ7).
T2 construct: expressed in transfected cells; host or cells: CHO cells (aAPC-PD-L1) co-cultured with Jurkat cells overexpressing PD-1 and an NFAT-luciferase reporter
The assay is described as follows: PD-1/PD-L1 NFAT reporter co-culture assay. Type of assay: cell-based. To be noted: Jurkat PD-1 NFAT-luciferase cells co-cultured with aAPC-PD-L1 CHO cells, 6 hrs at 37° C.; read-out: EC50 NFAT Luciferase. In outline:
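Restoration of TCR-driven NFAT luciferase signal: 6 h, 37 °C co-culture of PD-1 Jurkat reporter cells (pre-mixed with compound) on overnight-seeded PD-L1/anti-CD3 CHO monolayer. ONE-Glo luminescence; dose-response fitted to four-parameter equation for EC50.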

By AC50 is commonly meant the concentration giving half of the maximal activity seen. The IC50 is the concentration that inhibits the measured activity by half. One may read the EC50 as the concentration giving half of the maximal effect.

Sequence of PD-1/PD-L1 (Q9NZQ7 19-238 limits assumed): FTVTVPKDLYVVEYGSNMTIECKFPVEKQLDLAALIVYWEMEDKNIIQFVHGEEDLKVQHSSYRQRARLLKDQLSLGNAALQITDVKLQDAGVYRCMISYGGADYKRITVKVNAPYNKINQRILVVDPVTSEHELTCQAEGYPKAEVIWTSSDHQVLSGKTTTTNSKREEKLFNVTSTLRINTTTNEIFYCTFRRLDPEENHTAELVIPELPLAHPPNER
T1 sequence (Q9NZQ7 19-238 limits assumed): as above
T1 sequence (Q9NZQ7 19-238 limits assumed): as above
T2 sequence (Q9NZQ7 19-290): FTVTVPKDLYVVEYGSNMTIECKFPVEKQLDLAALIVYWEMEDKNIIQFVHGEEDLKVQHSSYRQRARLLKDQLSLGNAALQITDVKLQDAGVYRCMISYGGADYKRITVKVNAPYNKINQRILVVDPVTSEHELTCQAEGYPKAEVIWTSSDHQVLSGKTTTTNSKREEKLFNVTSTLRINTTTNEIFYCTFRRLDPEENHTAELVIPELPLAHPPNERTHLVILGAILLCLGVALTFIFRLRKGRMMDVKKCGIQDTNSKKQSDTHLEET

Take `N#Cc1cc(C#N)cc(COc2nc(OCc3cccc(-c4cccc(-c5ccc(CNC[C@@H]6CCC(=O)N6)cc5)c4Cl)c3Cl)c(Cl)cc2CNC[C@@H](O)CC(=O)O)c1` [Example 576]: in assay [1], the AC50 was 24.3 nM. Besides, the IC50 in assay [2] turned out to be 0.169 nM. In addition, the EC50 in assay [3] turned out to be 32 nM.
Regarding `C[C@@](CO)(NCc1cc(Cl)c(OCc2cccc(-c3cccc(-c4ccc(CNC[C@@H]5CCC(=O)N5)cc4)c3Cl)c2Cl)nc1OCc1cc(C#N)cc(C#N)c1)C(=O)O` [Example 577], in assay [1], the AC50 was found to be 9.73 nM. Further, the 50% inhibitory concentration (IC50) in assay [2] worked out at 0.064 nM. Further, the EC50 in assay [3] was found to be 16 nM.
For `CC(C)(NCc1cc(Cl)c(OCc2cccc(-c3cccc(-c4ccc(OCCNCCO)cc4)c3Cl)c2Cl)nc1OCc1cc(C#N)cc(C#N)c1)C(=O)O` [Example 578] the same measures were 37.2 nM, 0.111 nM and 135 nM.
Consider `Cc1c(COc2cc(OCc3cncc(C#N)c3)c(CN[C@@](C)(CO)C(=O)O)cc2Cl)cccc1-c1cccc(-c2ccc(CN3CC4(CCC(=O)N4)C3)cc2)c1C` [Example 579], for which the AC50 in assay [1] was determined as 34.8 nM. The IC50 in assay [2] was determined as 0.064 nM. For the same compound, in assay [3], the EC50 came out at 191 nM.
For the compound `Cc1c(COc2cc(OCc3cncc(C#N)c3)c(CN[C@@](C)(CO)C(=O)O)cc2Cl)cccc1-c1cccc(-c2ccc(CNCCn3ccnn3)cc2)c1C` [Example 580], the AC50 in assay [1] amounted to 231 nM. The IC50 in assay [2] amounted to 0.215 nM. The EC50 in assay [3] was found to be 200 nM.
Take `Cc1c(COc2nc(OCc3cncc(C#N)c3)c(CN[C@@](C)(CO)C(=O)O)cc2Cl)cccc1-c1cccc(-c2ccc(OCCNCCO)cc2)c1C` [Example 581]: the concentration at half-maximal activity (AC50) in assay [1] was determined as 60.3 nM. Further, the IC50 in assay [2] came to 0.182 nM. Besides, in assay [3], the EC50 was determined as 158 nM.
Take `Cc1c(COc2cc(OCc3cncc(C#N)c3)c(CN3CC[C@@H](O)C3)cc2Cl)cccc1-c1cccc(-c2ccc(CN3CC(CC(=O)O)C3)cc2)c1C` [Example 582]: the AC50 in assay [1] was 347 nM. The IC50 in assay [2] was determined as 1.3 nM. Moreover, in assay [3], the EC50 stood at 147 nM.
The like results for `Cc1c(COc2cc(OCc3cncc(C#N)c3)c(CN[C@@H]3CCC[C@@H]3O)cc2Cl)cccc1-c1cccc(-c2ccc3c(c2)CCC3N2CC3(CC(C(=O)O)C3)C2)c1C` (stereo partly drawn) [Example 583] were, in that order, 38.3 nM, 0.296 nM and 180 nM.
For `Cc1c(COc2cc(OCc3cncc(C#N)c3)c(CN[C@@H]3CCC[C@@H]3O)cc2Cl)cccc1-c1cccc(-c2ccc3c(c2)CCC3N2CC[C@H](CC(=O)O)C2)c1C` (stereo partly drawn) [Example 584], in assay [1], the AC50 is 38.6 nM. Further, in assay [2], the 50% inhibitory concentration (IC50) was 0.124 nM. For the same compound, in assay [3], the EC50 was found to be 149 nM.
As for `CC(=O)N1CC2(CN(Cc3cn(C)c4nc(-c5cccc(-c6cccc(-c7cnc8c(CN9CC%10(C9)CN(C(C)=O)C%10)cn(C)c8n7)c6Cl)c5Cl)cnc34)C2)C1` [Example 587], the AC50 in assay [1] is 324 nM. Moreover, in assay [2], the IC50 was 0.145 nM. Besides, in assay [3], the EC50 is 45 nM.
For `Cn1cc(CN2CC3(CNC(=O)C3)C2)c2ncc(-c3cccc(-c4cccc(-c5cnc6c(CN7CC8(CNC(=O)C8)C7)cn(C)c6n5)c4Cl)c3Cl)nc21` [Example 588], the AC50 in assay [1] came to 206 nM. Moreover, in assay [2], the IC50 was 0.081 nM. In addition, the EC50 in assay [3] is 50 nM.
With `Cn1cc(CN2CC3(CCC(=O)N3)C2)c2ncc(-c3cccc(-c4cccc(-c5cnc6c(CN7CC8(CCC(=O)N8)C7)cn(C)c6n5)c4Cl)c3Cl)nc21` [Example 589], in assay [1], the AC50 was 164 nM. Moreover, in assay [2], the IC50 is 0.163 nM. Further, the EC50 in assay [3] came to 89 nM.
The like results for `COc1nc(-c2cccc(-c3cccc(COc4nc(OC)c(CNC[C@@H](O)CC(=O)O)cc4Cl)c3Cl)c2Cl)ccc1CNC[C@@H]1CCC(=O)N1` [Example 590] were, in that order, 134 nM, 0.186 nM and 140 nM.
As for `COc1nc(O[C@H]2CCc3c(-c4cccc(-c5cc(C)c(CNC[C@@H]6CCC(=O)N6)c(OC)n5)c4Cl)cccc32)c(Cl)cc1CNC[C@@H]1CCC(=O)N1` [Example 591], the AC50 in assay [1] was 22.7 nM. Also, in assay [2], the IC50 came to 0.064 nM. Besides, in assay [3], the 50% effective concentration (EC50) is 20 nM.
`Cc1c(COc2cc(OCc3cncc(C#N)c3)c(CNC[C@@H](O)CC(=O)O)cc2Cl)cccc1-c1cccc(-c2nc3ccc(CNC[C@@H](O)CC(=O)O)cc3o2)c1C` [Example 592]: the AC50 in assay [1] amounted to 107 nM. Moreover, the IC50 in assay [2] was determined as 0.095 nM. In assay [3], the EC50 amounted to 172 nM.
The like results for `Cc1c(COc2cc(OCc3cncc(C#N)c3)c(CNC[C@@H](O)CC(=O)O)cc2Cl)cccc1-c1cccc(-c2nc3cc(CNC[C@@H](O)CC(=O)O)ccc3o2)c1C` [Example 593] were, in that order, 124 nM, 0.064 nM and 113 nM.
The like results for `Cc1c(COc2cc(OCc3cncc(C#N)c3)c(CNC[C@@H](O)CC(=O)O)cc2Cl)cccc1-c1cccc(-c2nc3ccc(CNC[C@@H](O)CC(=O)O)cn3n2)c1C` [Example 595] were, in that order, 77 nM, 0.064 nM and 65 nM.
As for `COc1nc(-c2cccc(-c3cccc(-c4cnn(CCN)c4)c3Cl)c2Cl)ccc1CNC[C@@H]1CCC(=O)N1` [Example 596, (S)-5-((((6-(3′-(1-(2-aminoethyl)-1H-pyrazol-4-yl)-2,2′-dichloro-[1,1′-biphenyl]-3-yl)-2-methoxypyridin-3-yl)methyl)amino)methyl)pyrrolidin-2-one], in assay [1], the half-maximal activity concentration (AC50) was 415 nM. Also, in assay [2], the IC50 is 0.671 nM. Moreover, the EC50 in assay [3] was determined as 169 nM.
With `COc1nc(-c2csc(-c3cccc(-c4ccc(CNC[C@@H]5CCC(=O)N5)c(OC)n4)c3Cl)c2)ccc1CNC[C@@H]1CCC(=O)N1` [Example 597, (S)-5-((((6-(2-chloro-3-(4-(6-methoxy-5-(((((S)-5-oxopyrrolidin-2-yl)methyl)amino)methyl)pyridin-2-yl)thiophen-2-yl)phenyl)-2-methoxypyridin-3-yl)methyl)amino)methyl)pyrrolidin-2-one], in assay [1], the AC50 turned out to be 310 nM. Besides, in assay [2], the IC50 stood at 1.26 nM. Besides, the 50% effective concentration (EC50) in assay [3] stood at 231 nM.
For `COc1nc(-c2cccc(-c3cccc(-c4ccc5c(ccn5CCN(C)C)c4)c3Cl)c2Cl)ccc1CNC[C@@H]1CCC(=O)N1` [Example 598, (S)-5-((((6-(2,2′-dichloro-3′-(1-(2-(dimethylamino)ethyl)-1H-indol-5-yl)-[1,1′-biphenyl]-3-yl)-2-methoxypyridin-3-yl)methyl)amino)methyl)pyrrolidin-2-one] the same measures were 480 nM, 3 nM and 1840 nM.
For `COc1nc(-c2cccc(-c3cccc(N4Cc5cc(CN6CC7(C6)CN(C(C)=O)C7)ccc5C4=O)c3Cl)c2Cl)ccc1CN1CC2(C1)CN(C(C)=O)C2` [Example 599, 5-((6-acetyl-2,6-diazaspiro[3.3]heptan-2-yl)methyl)-2-(3′-(5-((6-acetyl-2,6-diazaspiro[3.3]heptan-2-yl)methyl)-6-methoxypyridin-2-yl)-2,2′-dichloro-[1,1′-biphenyl]-3-yl)isoindolin-1-one] the same measures were 7930 nM, 0.214 nM and at least 50000 nM.
With `COc1nc(-c2cccc(-c3csc(-c4cnc(CNC[C@@H]5CCC(=O)N5)c(OC)n4)c3)c2Cl)ccc1CNC[C@@H]1CCC(=O)N1` [Example 600], the AC50 in assay [1] turned out to be 261 nM. For the same compound, in assay [2], the IC50 was found to be 0.39 nM. Further, in assay [3], the 50% effective concentration (EC50) amounted to 240 nM.
As to `COc1nc(-c2ccc(-c3cccc(-c4ccc(CNC[C@@H]5CCC(=O)N5)c(OC)n4)c3Cl)s2)ccc1CNC[C@@H]1CCC(=O)N1` [Example 601], the AC50 in assay [1] was 1130 nM. For the same compound, the IC50 in assay [2] came to 5.27 nM. Besides, in assay [3], the EC50 is 748 nM.
For `COc1nc(-c2cccc(-c3cccc(-c4cnc5c(CNC[C@H]6CCC(=O)N6)cn(C)c5c4)c3Cl)c2Cl)ccc1CNC[C@H]1CCC(=O)N1` [Example 602] the same measures were 124 nM, 0.236 nM and 242 nM.
For `COc1nc(-c2cccc(-c3cccc(-c4ccc5c(CNC[C@@H]6CCC(=O)N6)cc(=O)n(C)c5c4)c3Cl)c2Cl)ccc1CNC[C@@H]1CCC(=O)N1` [Example 603] the same measures were 235 nM, 0.206 nM and 158 nM.
In the case of `COc1nc(-c2cccc(-c3cccc(-c4ccc5c(CNC[C@@H]6CCC(=O)N6)cccc5c4)c3Cl)c2Cl)ccc1CNC[C@@H]1CCC(=O)N1` [Example 604], the concentration at half-maximal activity (AC50) in assay [1] was 935 nM. Further, in assay [2], the IC50 came out at 4.87 nM. Also, the EC50 in assay [3] was determined as 552 nM.
With `COc1nc(-c2cccc(-c3cccc(-c4ccc5c(CNC[C@H]6CCC(=O)N6)cn(C)c5c4)c3Cl)c2Cl)ccc1CNC[C@H]1CCC(=O)N1` [Example 605], the AC50 in assay [1] turned out to be 352 nM. Besides, in assay [2], the IC50 turned out to be 1.05 nM. Further, the half-maximal effective concentration (EC50) in assay [3] was 130 nM.
Consider `COc1nc(-c2cccc(-c3cccc(-c4ccc5[nH]c(CN(C)C)cc5c4)c3Cl)c2Cl)ccc1CNC[C@@H]1CCC(=O)N1` [Example 606], for which, in assay [1], the AC50 turned out to be 558 nM. The IC50 in assay [2] amounted to 6.23 nM. Further, in assay [3], the EC50 is at least 50000 nM.

These data come from patent US12590062B2, “PD-1/PD-L1 inhibitors” (Gilead Sciences, Inc., priority 2017, dated 2026).
